In patent publication US6602888B2, “Use of α1C specific compounds to treat benign prostatic hyperplasia” (Synaptic Pharmaceutical Corporation, priority 1992, dated 2003):
Where two headings read alike, the source gives them in different places.

Assays:
[1] = molecular target: T1, human α1C adrenergic receptor (Homo sapiens, UniProt P35348); test: Radioligand binding, [3H]prazosin, cloned human α1C adrenergic receptor
T1 construct: The entire coding region of α1C (1401 bp); expressed in transfected cells
T1 sequence (P35348 1-466): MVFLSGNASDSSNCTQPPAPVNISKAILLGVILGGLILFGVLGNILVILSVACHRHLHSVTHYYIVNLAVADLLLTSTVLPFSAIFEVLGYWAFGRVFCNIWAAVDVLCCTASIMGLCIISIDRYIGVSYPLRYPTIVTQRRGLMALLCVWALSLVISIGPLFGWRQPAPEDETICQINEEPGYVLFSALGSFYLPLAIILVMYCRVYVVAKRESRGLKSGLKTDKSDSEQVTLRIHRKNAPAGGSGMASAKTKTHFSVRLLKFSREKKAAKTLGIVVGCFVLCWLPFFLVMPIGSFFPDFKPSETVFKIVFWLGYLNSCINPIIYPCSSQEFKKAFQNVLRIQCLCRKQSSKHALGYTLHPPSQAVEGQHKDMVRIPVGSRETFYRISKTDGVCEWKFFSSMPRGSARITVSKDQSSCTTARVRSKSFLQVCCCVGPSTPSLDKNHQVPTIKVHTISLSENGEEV
Text: The construct involved ligating three partial overlapping fragments: a 5′ 0.6 kb HincII genomic clone, a central 1.8 EcoRI hippocampal cDNA clone, and a 3′ 0.6 Kb PstI genomic clone. The hippocampal cDNA fragment overlaps with the 5′ and 3′ genomic clones so that the HincII and PstI sites at the 5′ and 3′ ends of the cDNA clone, respectively, were utilized for ligation. This full-length clone was cloned into the KpnI site of the expression vector, using the 5′ and 3′ KpnI sites of the fragment, derived from vector (i.e., pBluescript) and 3′-untranslated sequences, respectively. Stable cell lines were selected as described above.

[2] = molecular target: T2, human histamine H1 receptor (Homo sapiens, UniProt P35367); test: [3H]mepyramine binding, histamine H1 receptor; details: for Ki: read-out: Histamine H1 (pK1) (converted)
T2 construct: host or cells: COS-7, transient, DEAE-dextran
T2 sequence (P35367 whole entry): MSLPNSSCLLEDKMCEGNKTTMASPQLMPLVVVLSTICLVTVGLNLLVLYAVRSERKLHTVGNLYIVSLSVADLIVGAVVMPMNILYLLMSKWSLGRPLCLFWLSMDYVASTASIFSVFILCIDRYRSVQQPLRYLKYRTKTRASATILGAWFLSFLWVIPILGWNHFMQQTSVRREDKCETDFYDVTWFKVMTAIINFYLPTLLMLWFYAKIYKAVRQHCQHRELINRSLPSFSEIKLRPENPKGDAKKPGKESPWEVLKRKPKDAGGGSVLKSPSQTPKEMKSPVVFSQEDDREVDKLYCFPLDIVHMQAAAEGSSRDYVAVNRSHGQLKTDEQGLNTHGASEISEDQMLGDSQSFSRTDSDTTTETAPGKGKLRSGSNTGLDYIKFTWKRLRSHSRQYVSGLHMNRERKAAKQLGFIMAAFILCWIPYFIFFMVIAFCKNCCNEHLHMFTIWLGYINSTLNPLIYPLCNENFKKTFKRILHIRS
Text: The coding sequence of the human histamine H1 receptor, homologous to the bovine H1 receptor, was obtained from a human hippocampal cDNA library, and was cloned into the eukaryotic expression vector pCEXV-3. The plasmid DNA for the H1 receptor is designated pcEXV-H1, and was deposited on Nov. […] This construct was transfected into COS-7 cells by the DEAE-dextran method.

human 5HT1Dα receptor = molecular target: T3, human 5HT1Dα receptor (Homo sapiens, UniProt P28221); test: [3H]serotonin competition binding, 5HT1Dα receptor
T3 construct: host or cells: LM(tk-) clonal cell line Ltk-8-30-84
T3 sequence (P28221 whole entry): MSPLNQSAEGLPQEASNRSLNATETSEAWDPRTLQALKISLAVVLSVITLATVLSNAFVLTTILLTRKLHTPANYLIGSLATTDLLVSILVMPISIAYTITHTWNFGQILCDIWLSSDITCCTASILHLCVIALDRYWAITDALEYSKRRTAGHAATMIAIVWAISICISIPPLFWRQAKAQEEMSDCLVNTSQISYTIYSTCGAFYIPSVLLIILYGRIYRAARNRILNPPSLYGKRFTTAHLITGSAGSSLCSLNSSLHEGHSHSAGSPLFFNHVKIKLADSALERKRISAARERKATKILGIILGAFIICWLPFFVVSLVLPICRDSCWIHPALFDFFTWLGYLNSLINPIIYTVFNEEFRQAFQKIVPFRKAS
Experimental: (§1) 5HT1Dα, 5HT1Dβ, 5HT1E, 5HT1F Receptors: The cell lysates of LM(tk−) clonal cell line stably transfected with the genes encoding each of these 5HT receptor-subtypes were prepared as described above. The cell line for the 5HT1Dα receptor, designated as Ltk-8-30-84, was deposited on Apr. […] The cell for the 5HT1Dβ receptor, designated as Ltk-11, was deposited on Apr. […] The cell line for the 5HT1E receptor, designated 5 HT1E-7, was deposited on Nov. […] The cell line for the 5HT1F receptor, designated L-5-HT1F, was deposited on Dec. […] These preparations were suspended in 50 mM Tris-HCl buffer (pH 7.4 at 37° C.) containing 10 mM MgCl2, 0.2 mM EDTA, 10 μM pargyline, and 0.1% ascorbate.

human 5HT1Dβ receptor = molecular target: T4, human 5HT1Dβ receptor (Homo sapiens, UniProt P28222); test: [3H]serotonin competition binding, 5HT1Dβ receptor
T4 construct: host or cells: LM(tk-) clonal cell line Ltk-11
T4 sequence (P28222 whole entry): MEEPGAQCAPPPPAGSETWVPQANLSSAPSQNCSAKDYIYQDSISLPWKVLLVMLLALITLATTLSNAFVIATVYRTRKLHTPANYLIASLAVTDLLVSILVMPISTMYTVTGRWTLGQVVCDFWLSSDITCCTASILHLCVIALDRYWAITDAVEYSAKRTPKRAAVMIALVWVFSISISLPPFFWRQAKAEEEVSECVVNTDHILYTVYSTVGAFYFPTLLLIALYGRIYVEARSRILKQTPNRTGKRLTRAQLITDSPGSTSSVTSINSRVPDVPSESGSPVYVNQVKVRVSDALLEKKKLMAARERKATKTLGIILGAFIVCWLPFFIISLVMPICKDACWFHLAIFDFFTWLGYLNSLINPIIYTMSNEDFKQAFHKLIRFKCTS
Experimental: as §1

human 5HT1F receptor = molecular target: T5, human 5HT1F receptor (Homo sapiens, UniProt P30939); test: [3H]serotonin competition binding, 5HT1F receptor
T5 construct: host or cells: LM(tk-) clonal cell line L-5-HT1F
T5 sequence (P30939 1-366): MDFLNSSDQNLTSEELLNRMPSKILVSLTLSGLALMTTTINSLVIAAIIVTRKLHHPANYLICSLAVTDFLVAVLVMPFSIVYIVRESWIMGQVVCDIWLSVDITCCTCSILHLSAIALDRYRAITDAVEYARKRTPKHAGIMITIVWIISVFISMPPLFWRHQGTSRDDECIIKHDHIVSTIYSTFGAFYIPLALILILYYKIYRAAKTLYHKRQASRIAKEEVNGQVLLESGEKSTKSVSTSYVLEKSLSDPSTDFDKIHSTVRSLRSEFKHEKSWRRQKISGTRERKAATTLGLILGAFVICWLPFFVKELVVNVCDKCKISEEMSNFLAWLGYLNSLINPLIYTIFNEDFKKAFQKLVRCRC
Experimental: as §1

human 5HT2 receptor = molecular target: T6, human 5HT2 receptor (Homo sapiens, UniProt P28223); test: [3H]ketanserin competition binding, 5HT2 receptor; details: for Ki: read-out: Serotonin 5HT2 (pK1)
T6 construct: host or cells: COS-7 (DEAE-dextran); the same paragraph also names a deposited line L-NGC-5HT2
T6 sequence (P28223 whole entry): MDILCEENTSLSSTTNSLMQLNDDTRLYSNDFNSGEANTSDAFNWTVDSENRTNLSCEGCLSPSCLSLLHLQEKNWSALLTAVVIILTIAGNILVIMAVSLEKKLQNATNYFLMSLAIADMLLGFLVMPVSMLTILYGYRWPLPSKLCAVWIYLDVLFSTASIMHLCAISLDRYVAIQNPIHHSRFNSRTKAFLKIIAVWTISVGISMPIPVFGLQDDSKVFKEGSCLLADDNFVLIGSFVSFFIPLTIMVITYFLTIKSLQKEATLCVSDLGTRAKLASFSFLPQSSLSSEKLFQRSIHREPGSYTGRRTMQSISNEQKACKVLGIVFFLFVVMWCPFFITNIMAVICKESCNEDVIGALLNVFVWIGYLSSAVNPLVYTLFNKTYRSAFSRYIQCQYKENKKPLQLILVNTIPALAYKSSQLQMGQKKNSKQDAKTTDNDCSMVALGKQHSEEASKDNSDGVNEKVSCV
Experimental: The coding sequence of the human 5HT2 receptor was obtained from a human brain cortex cDNA library, and cloned into the cloning site of pCEXV-3 eukaryotic expression vector. This construct was transfected into COS-7 cells by the DEAE-dextran method. […] Nonspecific binding was defined by the addition of 10 μM mianserin.

calcium channels = molecular target: T7, calcium channels (Rattus norvegicus, UniProt P22002); test: [3H]nitrendipine competition binding, calcium channels, rat cardiac muscle membranes; details: for Ki: read-out: Calcium Channel (pK1) (converted)
T7 construct: from tissue; host or cells: rat cardiac muscle membranes
T7 sequence (P22002 whole entry, other chains not shown): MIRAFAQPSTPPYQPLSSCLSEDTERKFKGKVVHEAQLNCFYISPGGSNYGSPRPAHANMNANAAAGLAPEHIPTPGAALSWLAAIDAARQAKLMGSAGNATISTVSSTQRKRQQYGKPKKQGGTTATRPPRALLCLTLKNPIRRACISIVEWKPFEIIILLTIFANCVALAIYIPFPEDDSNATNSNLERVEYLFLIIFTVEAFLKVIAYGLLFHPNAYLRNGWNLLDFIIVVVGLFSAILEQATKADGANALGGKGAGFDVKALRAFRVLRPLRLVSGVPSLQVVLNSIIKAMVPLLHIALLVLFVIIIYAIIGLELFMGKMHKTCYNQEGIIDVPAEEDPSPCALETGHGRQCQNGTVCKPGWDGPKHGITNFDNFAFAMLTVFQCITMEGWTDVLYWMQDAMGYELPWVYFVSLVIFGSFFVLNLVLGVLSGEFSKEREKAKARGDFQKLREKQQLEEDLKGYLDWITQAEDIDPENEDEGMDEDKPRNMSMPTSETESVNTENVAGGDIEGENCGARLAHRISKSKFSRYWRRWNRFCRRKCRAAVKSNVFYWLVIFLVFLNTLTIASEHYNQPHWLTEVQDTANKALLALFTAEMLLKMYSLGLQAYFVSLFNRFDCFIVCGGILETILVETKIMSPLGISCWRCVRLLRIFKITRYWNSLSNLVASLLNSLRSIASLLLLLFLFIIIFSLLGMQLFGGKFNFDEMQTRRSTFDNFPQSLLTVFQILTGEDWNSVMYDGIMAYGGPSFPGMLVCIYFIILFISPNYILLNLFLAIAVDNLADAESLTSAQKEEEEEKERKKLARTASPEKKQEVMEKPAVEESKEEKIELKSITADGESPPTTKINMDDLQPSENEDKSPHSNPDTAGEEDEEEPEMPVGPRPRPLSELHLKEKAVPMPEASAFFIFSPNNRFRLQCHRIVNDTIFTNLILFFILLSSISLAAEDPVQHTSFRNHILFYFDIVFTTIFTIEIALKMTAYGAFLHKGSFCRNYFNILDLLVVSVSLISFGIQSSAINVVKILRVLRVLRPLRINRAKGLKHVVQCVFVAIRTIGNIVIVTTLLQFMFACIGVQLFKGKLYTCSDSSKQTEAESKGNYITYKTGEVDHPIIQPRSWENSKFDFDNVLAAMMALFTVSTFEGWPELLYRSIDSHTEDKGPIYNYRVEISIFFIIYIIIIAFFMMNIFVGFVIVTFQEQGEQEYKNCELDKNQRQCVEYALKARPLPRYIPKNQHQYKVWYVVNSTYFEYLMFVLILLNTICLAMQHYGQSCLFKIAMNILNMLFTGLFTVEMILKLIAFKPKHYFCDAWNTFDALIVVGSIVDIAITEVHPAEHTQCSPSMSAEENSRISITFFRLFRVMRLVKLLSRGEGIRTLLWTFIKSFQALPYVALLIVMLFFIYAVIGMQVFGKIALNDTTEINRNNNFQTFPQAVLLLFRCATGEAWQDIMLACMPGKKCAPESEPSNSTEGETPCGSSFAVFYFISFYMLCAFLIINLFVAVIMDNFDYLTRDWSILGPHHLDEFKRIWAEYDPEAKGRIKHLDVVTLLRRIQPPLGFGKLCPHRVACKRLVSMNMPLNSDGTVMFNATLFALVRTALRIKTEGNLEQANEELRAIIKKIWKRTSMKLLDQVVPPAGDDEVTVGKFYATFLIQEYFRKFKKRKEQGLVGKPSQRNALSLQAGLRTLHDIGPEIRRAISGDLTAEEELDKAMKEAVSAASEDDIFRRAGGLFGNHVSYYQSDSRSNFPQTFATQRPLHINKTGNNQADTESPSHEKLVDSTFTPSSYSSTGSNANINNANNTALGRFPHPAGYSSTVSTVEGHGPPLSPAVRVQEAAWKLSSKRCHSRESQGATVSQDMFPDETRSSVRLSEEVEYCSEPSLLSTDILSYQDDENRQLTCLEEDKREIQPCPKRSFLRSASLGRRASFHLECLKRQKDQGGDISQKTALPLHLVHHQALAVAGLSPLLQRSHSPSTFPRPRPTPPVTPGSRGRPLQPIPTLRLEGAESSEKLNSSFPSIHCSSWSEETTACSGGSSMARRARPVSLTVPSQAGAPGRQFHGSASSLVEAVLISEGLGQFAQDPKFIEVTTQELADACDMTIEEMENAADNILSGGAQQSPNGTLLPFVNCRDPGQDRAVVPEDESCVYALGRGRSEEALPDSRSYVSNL
T7 sequence (P54290 25-944 partner limits assumed, other chains not shown): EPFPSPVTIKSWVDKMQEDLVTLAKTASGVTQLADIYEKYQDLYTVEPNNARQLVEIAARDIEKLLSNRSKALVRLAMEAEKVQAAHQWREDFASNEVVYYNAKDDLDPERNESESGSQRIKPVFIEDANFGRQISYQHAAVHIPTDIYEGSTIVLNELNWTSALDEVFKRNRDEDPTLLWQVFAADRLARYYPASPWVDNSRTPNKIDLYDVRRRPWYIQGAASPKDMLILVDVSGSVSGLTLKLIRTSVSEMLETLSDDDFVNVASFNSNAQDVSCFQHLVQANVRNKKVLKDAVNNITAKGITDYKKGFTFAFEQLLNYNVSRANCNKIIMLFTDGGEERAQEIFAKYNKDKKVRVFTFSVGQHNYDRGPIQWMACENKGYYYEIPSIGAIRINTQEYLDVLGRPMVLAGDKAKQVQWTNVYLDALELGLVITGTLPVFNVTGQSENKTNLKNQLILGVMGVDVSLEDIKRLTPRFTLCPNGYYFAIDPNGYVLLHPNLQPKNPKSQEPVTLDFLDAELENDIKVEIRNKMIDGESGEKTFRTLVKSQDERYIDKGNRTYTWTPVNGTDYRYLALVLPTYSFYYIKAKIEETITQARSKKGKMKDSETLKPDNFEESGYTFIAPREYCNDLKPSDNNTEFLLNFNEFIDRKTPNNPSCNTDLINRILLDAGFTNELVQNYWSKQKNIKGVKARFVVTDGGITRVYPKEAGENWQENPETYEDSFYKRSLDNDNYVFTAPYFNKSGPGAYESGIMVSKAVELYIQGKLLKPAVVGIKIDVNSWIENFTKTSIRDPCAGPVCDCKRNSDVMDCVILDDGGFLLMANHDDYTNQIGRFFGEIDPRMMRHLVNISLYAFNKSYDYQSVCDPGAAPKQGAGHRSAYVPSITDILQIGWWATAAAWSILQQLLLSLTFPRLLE
T7 sequence (P54290 945-1091 partner limits assumed, other chains not shown): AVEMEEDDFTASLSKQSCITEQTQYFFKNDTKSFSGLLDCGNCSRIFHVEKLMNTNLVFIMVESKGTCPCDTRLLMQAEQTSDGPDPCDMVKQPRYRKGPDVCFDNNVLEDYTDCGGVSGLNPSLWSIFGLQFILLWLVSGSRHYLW
Experimental: Briefly, the tissue was minced and homogenized in 50 mM Tris-HCl (pH 7.4) containing 0.1 mM phenylmethylsulfonyl fluoride. The homogenates were centrifuged at 1000 g for 15 minutes, the resulting supernatant was centrifuged at 45,000 g for 15 minutes. The 45,000 g pellet was suspended in buffer and centrifuged a second time.

[3] = molecular target: T8, human α1A adrenergic receptor (Homo sapiens, UniProt P25100); test: Radioligand binding, [3H]prazosin, cloned human α1A adrenergic receptor
T8 sequence (P25100 1-572): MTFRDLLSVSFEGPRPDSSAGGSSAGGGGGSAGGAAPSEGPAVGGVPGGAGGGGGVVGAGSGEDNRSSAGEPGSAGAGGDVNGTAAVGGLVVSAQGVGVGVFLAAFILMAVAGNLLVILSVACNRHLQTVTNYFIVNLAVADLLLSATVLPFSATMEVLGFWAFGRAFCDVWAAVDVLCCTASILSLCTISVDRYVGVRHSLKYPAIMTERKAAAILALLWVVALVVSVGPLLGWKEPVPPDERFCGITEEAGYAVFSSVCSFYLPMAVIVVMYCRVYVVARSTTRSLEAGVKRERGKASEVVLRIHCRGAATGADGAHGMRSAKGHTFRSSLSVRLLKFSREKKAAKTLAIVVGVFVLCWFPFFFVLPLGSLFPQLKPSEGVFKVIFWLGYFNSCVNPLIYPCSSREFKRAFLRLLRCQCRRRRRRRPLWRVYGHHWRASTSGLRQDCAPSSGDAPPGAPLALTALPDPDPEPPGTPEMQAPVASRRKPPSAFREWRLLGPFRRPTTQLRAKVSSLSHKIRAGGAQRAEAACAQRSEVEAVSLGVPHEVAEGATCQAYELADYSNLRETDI

[4] = Table 2, rat cardiac muscle membranes
[5] = Table 2, cloned human receptor, read-out: Serotonin 5HT1Da (pK1)
[6] = Table 2, cloned human receptor, read-out: Serotonin 5HT1Db (pK1)
[7] = Table 2, cloned human receptor, read-out: Serotonin 5HT1F (pK1)

Compound	Serotonin 5HT1Da (pK1) (human 5HT1Dα receptor; Table 2, cloned human receptor)	Serotonin 5HT1Db (pK1) (human 5HT1Dβ receptor; Table 2, cloned human receptor)	Serotonin 5HT1F (pK1) (human 5HT1F receptor; Table 2, cloned human receptor)	Human Alpha-1 Adrenergic (pK1) a1C ([1]; Table 1, cloned human receptor)	Alpha-1 Adrenergic a1C (pK1) ([1]; Table 2, cloned human receptor)	Histamine H1 (pK1) ([2]; Table 2, cloned human receptor)	Serotonin 5HT2 (pK1) (human 5HT2 receptor; Table 2, cloned human receptor)	Alpha-1 Adrenergic a1A (pK1) ([3]; Table 2, cloned human receptor)	Calcium Channel (pK1) (calcium channels; [4])	Ki ([2]; Table 2, cloned human receptor) [nM]	Ki (human 5HT2 receptor; Table 2, cloned human receptor) [nM]	Ki (calcium channels; [4]) [nM]	also measured
4-fluoro-4-(8-fluoro-1,3,4,5-tetrahydro-2H-pyrido[4,3-b]indol-2-yl)butyrophenone hydrochloride [Compound A-30360, reference compound]	<6.0	<6.0	<5.0										Alpha-1 Adrenergic a1C (pK1) [1]: 8.52; Human Alpha-1 Adrenergic (pK1) a1C [1]: 8.52; Histamine H1 (pK1) [2]: 6.03; Serotonin 5HT2 (pK1) (human 5HT2 receptor): <8.0; Calcium Channel (pK1) (calcium channels): 5.26; Alpha-1 Adrenergic a1A (pK1) [3]: 7.49
COc1ccccc1N1CCN(CCCNc2c(C)c(=O)n(C)c(=O)n2C)CC1 [5-Methyl-Urapidil, 5-methylurapidil, reference compound]	7.30	6.82		8.35	8.35	5.16	<6.0	7.79					
O=C(CCCN1CCC(NC(=O)c2ccccc2)CC1)c1ccc(Cl)cc1 [Compound 7]	<6.0	<5.0	<5.0	8.42	8.42	7.59	<6.0	6.82	4.79				
COC(=O)C1=C(C)NC(C)=C(C(=O)OCCCN2CCC(c3ccccc3)(c3ccccc3)CC2)C1c1ccc([N+](=O)[O-])cc1.Cl (stereo not drawn) [Compound 8, 2,6-Dimethyl-4-(4-nitrophenyl)-1,4-dihydropyridine-3,5-dicarboxylic acid [3-(4,4-diphenylpiperidin-1-yl)propyl] ester methyl ester hydrochloride]								6.52	6.87	214	> 100		Alpha-1 Adrenergic a1C (pK1) [1]: 8.48; Human Alpha-1 Adrenergic (pK1) a1C [1]: 8.48; Ki (human 5HT1Dα receptor): > 1000 nM; Ki (human 5HT1Dβ receptor): > 10000 nM; Ki (human 5HT1F receptor): > 10000 nM
O=C(CCCN1CCC(NC(=O)c2ccccc2)CC1)c1ccccc1 [Compound 9]	<6.0	<6.0	<5.0	7.83	7.83	7.29	<7.0	6.12	4.44				
COc1ccc(CCNCC2CCc3ccccc3C2)cc1 (stereo not drawn) [Compound 11, 2-[(4-Methoxyphenethyl)aminomethyl]-1,2,3,4-tetrahydronaphthalene]					8.36			6.81		1820	> 100	6610	Ki ([1]; Table 1, cloned human receptor, read-out: Human Alpha-1 Adrenergic (pK1) a1C (converted)): 4.37 nM; binding affinity at α1C receptors relative to binding affinities at other receptors ([1]; versus the other receptors of Table 2): greater than ten-fold higher; Ki (human 5HT1Dα receptor): > 1000 nM; Ki (human 5HT1Dβ receptor): > 1000 nM; Ki (human 5HT1F receptor): > 10000 nM; Ki [3]: 155 nM
O=C(NC1CCN(CCc2c[nH]c3ccccc23)CC1)c1ccccc1 [Indoramin, reference compound]										42.7	> 100	29500	selectivity for the human α1C receptor relative to the other human α-adrenergic receptors ([1]; cloned human receptors): slightly selective; Ki (human 5HT1Dα receptor; [5]): > 1000 nM; Ki (human 5HT1Dβ receptor; [6]): > 1000 nM; Ki (human 5HT1F receptor; [7]): > 10000 nM
C=Cc1sc2ccc(Cl)c3c2c1CN(C)CC3 [SKF-104856, 7-Chloro-2-ethenyl-3,4,5,6-tetrahydro-4-methylthieno[4,3,2-ef][3]benzazepine, reference compound]				7.60	7.60					2570	> 1000	20900	Ki (human 5HT1Dα receptor; [5]): > 100 nM; Ki (human 5HT1Dβ receptor; [6]): > 100 nM; Ki (human 5HT1F receptor; [7]): > 100 nM
